For one molecule, IC50 results are on record in paper PMC9974506 (Proceedings of the National Academy of Sciences of the …, 2023).

In the assay the target is T1, BRTNaC1 (broad-range thermal receptor 1) (Scolopendra mutilans, UniProt A0ABF7PQ77).
T1 sequence (A0ABF7PQ77 1-431): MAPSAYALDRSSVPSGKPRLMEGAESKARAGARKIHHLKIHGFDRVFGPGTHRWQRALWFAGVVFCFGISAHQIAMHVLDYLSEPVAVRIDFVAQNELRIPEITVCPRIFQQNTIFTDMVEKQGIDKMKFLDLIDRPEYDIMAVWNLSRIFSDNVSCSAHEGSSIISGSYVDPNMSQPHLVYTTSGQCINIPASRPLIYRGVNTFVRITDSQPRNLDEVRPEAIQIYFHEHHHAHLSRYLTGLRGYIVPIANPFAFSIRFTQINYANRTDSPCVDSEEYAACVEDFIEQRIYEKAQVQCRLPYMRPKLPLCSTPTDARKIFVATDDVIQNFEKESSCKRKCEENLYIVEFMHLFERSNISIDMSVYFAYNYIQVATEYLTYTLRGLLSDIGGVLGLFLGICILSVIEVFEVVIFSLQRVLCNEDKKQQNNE
Description: patch clamp, transfected HEK293 cells, heat-activated current, Hill fit. The assay is classed as cell-based.

Regarding `C[C@]12CC[C@H]3[C@@H](CCC4=CC(=O)CC[C@@]43C)[C@@H]1CC[C@@H]2O` [testosterone], half-maximal inhibition (IC50) was put at 3.8 ± 1.1 µM.
